According to patent US20030228642A1, “Crohn's disease treatment and efficacy prediction methods” (priority 2002, published 2003):

Experiments:
[1] = tested on: M. para. isolated from resected tissue of CD patients; assay: in vitro test of seven antituberculosis drugs against M. para. (Bactec system); assay type: cell-based, Mycobacterium paratuberculosis; set-up: key to Status: R, resistant; S, sensitive; conditions: for IC99.9: 99.9% M. para. cells inhibited or killed, Bactec system, combinations given as drug:drug, read-out: MIC99.9; for Status: M. para. resistant or sensitive to the drug
Crohn's disease [2] = assay: comparison of age-matched MAP-positive and MAP-negative patients at 1 year (CDAI); assay type: in vivo, human; conditions: patients unresponsive to antibiotics, MAP-negative group
Text: Another study was undertaken to compare age-matched MAP-positive and -negative patients utilizing ELISA analysis for serum antibodies to MAP. 10 MAP-positive and 10 MAP-negative patients were compared at 1 year, utilizing the CDAI score as a primary endpoint. The elimination of corticosteroids and the need for immunotherapy were considered secondary endpoints. The MAP-positive patients achieved complete remission in 9 out of the 10 cases, with entry CDAI score of 285 and exit score of 111. Steroids were eliminated in 8 of 10 patients, with 2 patients requiring low-dose steroids. In the MAP-negative group at 1 year, 6 of 10 patients were in complete remission, with an entry CDAI score of 308 and an exit score of 179. Of the responsive patients, 3 of 6 required additional immunotherapy, and 3 remained on antibiotics alone.

Crohn's disease [3] = conditions: cited from earlier work

Molecule | IC99.9 [1] [µg/mL] | Status [1] | induction of remission (Crohn's disease [2]) | benefit of every 8-week administration (Crohn's disease [3]; over 550 patients with CD, preliminary trial results) | complications of the immunosuppresive effects (Crohn's disease [3]; patients treated for CD and rheumatoid arthritis)
[H]/N=C(/N)N[C@H]1[C@H](O)[C@@H](O)[C@H](O[C@@H]2O[C@@H](C)[C@](O)(C=O)[C@H]2O[C@@H]2O[C@@H](CO)[C@H](O)[C@@H](O)[C@@H]2NC)[C@@H](N/C(N)=N\[H])[C@@H]1O [ST, streptomycin] | > 3 | R | – | – | –
CO[C@H]1/C=C/O[C@@]2(C)Oc3c(C)c(O)c4c(O)c(c(/C=N/N5CCN(C)CC5)c(O)c4c3C2=O)NC(=O)/C(C)=C\C=C\[C@H](C)[C@H](O)[C@@H](C)[C@@H](O)[C@@H](C)[C@H](OC(C)=O)[C@@H]1C [RIF, Rifampicin] | > 2.6 | R | – | – | –
infliximab: a monoclonal chimeric antibody to tumor necrosis factor α (TNF-α) | – | – | induction of remission in all patients | maintenance of remission and improved quality of life | Documented cases of miliary tuberculosis
NC(=O)c1cnccn1 [PZA, pyrazinamide] | > 20 | R | – | – | –
CC[C@@H](CO)NCCN[C@@H](CC)CO [EMB, ethambutol] | < 3 | S | – | – | –
NNC(=O)c1ccncc1 [INH, isoniazid] | > 20 | R | – | – | –
NC[C@H]1O[C@H](O[C@H]2[C@H](O)[C@@H](O[C@H]3O[C@H](CO)[C@@H](O)[C@H](N)[C@H]3O)[C@H](N)C[C@@H]2N)[C@H](O)[C@@H](O)[C@@H]1O [KM, kanamycin] | < 3 | R | – | – | –
CC[C@H]1OC(=O)[C@H](C)[C@@H](O[C@H]2C[C@@](C)(OC)[C@@H](O)[C@H](C)O2)[C@H](C)[C@@H](O[C@@H]2O[C@H](C)C[C@H](N(C)C)[C@H]2O)[C@](C)(OC)C[C@@H](C)C(=O)[C@H](C)[C@@H](O)[C@]1(C)O [CLR, clarithromycin] | < 1.25 | S | – | – | –
